From US8519002B2, “Colchicine solid complex; methods of making; and methods of use thereof” (Takeda Pharmaceuticals U.S.A., Inc., priority 2008, dated 2013)

Tests used:
[1] = for hygroscopicity suggested by DVS data: 5% to 95% RH; for weight gain observed on the sorption step: DVS whole sorption step
Procedure: Samples ae not dried prior to analysis. Equilibrium criteria used for analysis were less than 0.0100% weight change in 5 minutes, with a maximum equilibration time of 3 hours if the weight criterion was not met. Data are not corrected for the initial moisture content of the samples. Sodium chloride and polyvinypyrrolidine are used as calibration standards.

[2] = 40° C./75% RH; for XRPD of stressed sample (solid form after stress): 4 days, result in words
[3] = DVS desorption, result in words

With `COc1cc2c(c(OC)c1OC)-c1ccc(OC)c(=O)cc1[C@@H](NC(C)=O)CC2.COc1cc2c(c(OC)c1OC)-c1ccc(OC)c(=O)cc1[C@@H](NC(C)=O)CC2.O=C(O)C(=O)O` [colchicine oxalic acid co-crystal] the “hygroscopicity suggested by DVS data” value ([1]; result in words) was “hygroscopic”, the “weight loss from 95 to 5% RH” value ([1]; DVS desorption) was 15.2% weight loss from 95 to 5% RH and the hysteresis upon desorption [1, 3] was “Significant hysteresis”. For the same molecule, the “weight gain from 5 to 75% RH” value ([1]; DVS sorption) was 0.5% weight gain from 5 to 75% RH, the “behaviour of material in DVS (deliquescence)” value ([1]; DVS, upon desorption, result in words) was “deliquesces” and the “net weight loss after 4 days” value [2] was “approximately 6.7%”. For the same molecule, the “XRPD of stressed sample (solid form after stress)” value (shortened to “XRPD of stressed sample”) [2] was “colchicine oxalic acid co-crystal, but minor disorder and shifting of the peaks is observed”.

In the case of `COc1cc2c(c(OC)c1OC)-c1ccc(OC)c(=O)cc1[C@@H](NC(C)=O)CC2.Cc1ccc(S(=O)(=O)O)cc1`, the “hygroscopicity suggested by DVS data” value ([1]; result in words) is reported as “not significantly hygroscopic”, the “weight loss from 95 to 5% RH” value ([1]; DVS desorption) is reported as 0.5% weight loss from 95 to 5% RH and the “weight gain from 5 to 95% RH” value ([1]; DVS sorption, 5 to 95% RH) is reported as 0.4% weight gain from 5 to 95% RH. For the same molecule, the “weight loss upon equilibration at 5% RH” value ([1]; DVS sorption, equilibration at 5% RH) was 0.01% weight loss upon equilibration at 5% RH, the “weight gain observed on the sorption step” value [1] was roughly 0.4% and the “net weight loss after sorption and desorption” value ([1]; DVS, desorption versus sorption) was roughly 0.01%. The “net weight gain after 4 days” value [2] was “approximately 1.0%” and the “XRPD of stressed sample” value [2] was “unchanged”.

For `COc1cc2c(c(OC)c1OC)-c1ccc(OC)c(=O)cc1[C@@H](NC(C)=O)CC2.O=C(O)C[C@H](O)C(=O)O` [colchicine malic acid co-crystal], the “hygroscopicity suggested by DVS data” value ([1]; result in words) was “hygroscopic”, the “weight loss from 75 to 5% RH” value ([1]; DVS desorption, 75 to 5% RH) was 9.6% weight loss from 75 to 5% RH and the “weight loss from 95 to 75% RH” value ([1]; DVS desorption, 95 to 75% RH) was 15.0% weight loss from 95 to 75% RH. For the same molecule, the hysteresis upon desorption [1, 3] was “no hysteresis”, the “weight gain from 5 to 75% RH” value ([1]; DVS sorption) was 6.2% weight gain from 5 to 75% RH and the “weight gain from 75 to 95% RH” value ([1]; DVS sorption, 75 to 95% RH (above 75% RH)) was 15.6% weight gain from 75 to 95% RH. The “weight gain observed on the sorption step” value [1] was “approximately 22%”, the “Post DVS XRPD (solid form after DVS)” value ([1]; XRPD of sample after DVS) was “Colchicine malic acid co-crystal” and the “net weight gain after 4 days” value [2] was “approximately 5.4%”. For the same molecule, the “XRPD of stressed sample” value [2] was “remains unchanged”.
